Assay [1] concerns AMATU. Put plainly: Greenhouse post-emergence foliar test (Example 72). Particulars: Amaranthus tuberculatus, 336 h, read-out: % Visual growth inhibition (AMATU). The assay is classed as in vivo, Amaranthus rudis. As for the experimental part: (§1) Compound 1 was tested at several doses for foliar weed control efficacy by itself or in combination with other herbicides.
(§2) The weed seeds were sown in 10″×20″ trays and propagated up to the transplanting stage which is 1-2 emerging leaves. One plant was then transplanted into 7×7×8 cm pots and sprayed with the compounds when plants reached the 3-4 true leaf stage for grass species or 10-15 cm for broadleaf species. The plants were propagated in a greenhouse with 26-28° C. day, 20-22° C. night temperature at 50-60%0 relative humidity and supplemental light using high pressure sodium grow lights when necessary. Three weeks after sowing, plants were sprayed with the test compound solution in a laboratory spray chamber fitted with 8003 even fan nozzle calibrated to deliver 187 L ha^−1 at 269 kPa. All treatments included the following inert ingredients in the final formulation; […] (AGRI-DEX®, Helena Agri), 2.5% Ammonium sulphate (w/v), and 0.1% Tween-20 (v/v). Plants were evaluated for percentage visual growth inhibition compared to treated control, 14 days after treatment (DAT).

For assay [2], the system named is ECHCG. Description: Greenhouse post-emergence foliar test (Example 72). The assay is classed as in vivo. Particulars: Echinochloa crus-galli, 336 h, read-out: % Visual growth inhibition (ECHCG). As for the experimental part:
as §1, §2

Assay [3] has as its system AMAPA. Description: Greenhouse pre-emergence residual test (Example 73). To be noted: 17-21 DAT. The assay is classed as in vivo, Amaranthus palmeri. On the procedure: (§3) Compound 1 was tested at several doses for residual weed control efficacy by itself or in combination as a tank mix with commercial herbicides. The following commercial products were used in tank mix with a 10% active emulsifiable concentrate formulation of Compound 1: S-metolachlor (Dual Magnum®, Syngenta), mesotrione (Callisto®, Syngenta), pyroxasulfone (Zidua® SC, BASF), metribuzin (Tricor DF™, United Phosphorus, Inc).
(§4) Accordingly, weed seeds were planted in 2-inch pots containing custom field soil mix (sandy loam with 3.3% organic matter, pH 7.0) and covered with a fine layer of the same soil. Three replicate pots were treated with each compound. Treatment consisting of the above formulation excluding active compound was applied as a treatment control (TC). Pots were treated with the test compound solution in a laboratory spray chamber fitted with 8003 even fan nozzles calibrated to deliver 187-200 L ha^−1 at 269 kPa. All treatments included the following inert ingredients in the final formulation; 1% Crop Oil Concentrate (v/v) (AGRI-DEX, Helena Agri) and 2.5% Ammonium sulphate (w/v). Compound 1 was incorporated into the soil by simulating rainfall equivalent to 0.2 mm using the same track sprayer. Subsequently, pots were irrigated from the bottom until weed control evaluation. Pots were placed back in the greenhouse and evaluated for percentage visual growth and germination inhibition compared to TC 17-21 days after treatment (DAT). Complete growth inhibition is represented by 100%.

Assay [4] relates to AMATU. The assay is described as above. The assay is classed as in vivo, Amaranthus rudis. To be noted: 17-21 DAT. On the procedure: as §3, §4
Assay [5] relates to KCHSC. Described as above. The assay is classed as in vivo, Bassia scoparia. Particulars: 17-21 DAT. As for the experimental part:
as §3, §4

Assay [6] has as its system CHEAL. The assay is described as above. The assay is classed as in vivo, Chenopodium album. Particulars: 17-21 DAT. On the procedure: as §3, §4
Assay [7] deals with DIGSA. The description is as above. Particulars: 17-21 DAT. The assay is classed as in vivo, Digitaria sanguinalis. As for the experimental part: as §3, §4
The test system of assay [8] is ALOMY. The description is as above. The assay is classed as in vivo, Alopecurus myosuroides. To be noted: 17-21 DAT. As for the experimental part: as §3, §4
Assay [9] deals with ECHCG. Described as above. To be noted: 17-21 DAT. The assay is classed as in vivo, Echinochloa crus-galli. On the procedure: as §3, §4
Assay [10] concerns AMATU. Put plainly: Field test, post-emergence foliar application (Example 70). To be noted: glyphosate 1120 g a.i./ha, 2 weeks after application. The assay is classed as in vivo, Amaranthus rudis. On the procedure: (§5) Compound 1 and Compound 1 mixed with glyphosate were tested at different field locations to evaluate the herbicides efficacy for controlling weeds by post-emergence foliar application. All herbicide treatments were applied with a backpack CO2 pressurized sprayer at 190 L/ha volume. The applications were made after the weeds emerged and reached the 5 to 12 cm size range. Herbicide treatments included Compound 1 formulated as 10% emulsified concentrate, glyphosate as a commercial formulation (Roundup Power Max, Monsanto), or a mixture of Compound 1 and glyphosate products prepared as a “tank-mix” before the field application. All herbicide field spray solution included ammonium sulfate and concentrated crop oil adjuvant to a final solution concentration of 2% and 1% respectively. Different weeds species were assessed at the separate field locations. For each species, the herbicide efficacy to control weeds, assessed as % of dead plants relative to the untreated control plots, was evaluated at 2 weeks after the herbicide application to account for weed re-growth.

Assay [11] relates to CHEAL. The description is as above. The assay is classed as in vivo, Chenopodium album. Particulars: glyphosate 1120 g a.i./ha, 2 weeks after application. On the procedure: as §5
Assay [12] deals with AMAPA. The description is as above. The assay is classed as in vivo, Amaranthus palmeri. Particulars: Loc 13; glyphosate 1120 g a.i./ha; 2 weeks after application. On the procedure: as §5
Assay [13] deals with ABUTH. The assay is described as above. The assay is classed as in vivo, Abutilon theophrasti. Particulars: Loc 13; glyphosate 1120 g a.i./ha; 2 weeks after application. As for the experimental part:
as §5

For assay [14], the system named is SETFA. Described as above. To be noted: Loc 15; glyphosate 1120 g a.i./ha; 2 weeks after application. The assay is classed as in vivo, Setaria faberi. As for the experimental part: as §5

Read-outs that look alike come from different tables or passages of the source.

One may read the inhibition as how much of the control response was suppressed. Regarding `CP(=O)(O)CCC(N)C(=O)O` (stereo not shown) [glufosinate], the values for the inhibition at 450 g/ha in [1] and in assay [2] were 96% and 41%, respectively.

Take `COc1c(Cl)ccc(Cl)c1C(=O)O` [dicamba, 3,6-dichloro-2-methoxybenzoic acid]: the inhibition at 280 g/ha in [1] (Dose 280 g a.i./ha, 14 DAT) is 74%; in assay [2] (Dose 280 g a.i./ha, 14 DAT), 5%.

With `CSc1nnc(C(C)(C)C)c(=O)n1N` [metribuzin], the inhibition at 200 g/ha was found to be 20% in [3] (Amaranthus palmeri, pre-emergence, Dose 200 g a.i./ha, read-out: Pre-emergence percent weed growth and germination inhibition AMAPA); 65% in assay [4] (Amaranthus tuberculatus, pre-emergence, Dose 200 g a.i./ha, read-out: Pre-emergence percent weed growth and germination inhibition AMATU); 100% in [5] (Bassia scoparia, pre-emergence, Dose 200 g a.i./ha, read-out: Pre-emergence percent weed growth and germination inhibition KCHSC); 100% in assay [6] (Chenopodium album, pre-emergence, Dose 200 g a.i./ha, read-out: Pre-emergence percent weed growth and germination inhibition CHEAL); 13% in [7] (Digitaria sanguinalis, pre-emergence, Dose 200 g a.i./ha, read-out: Pre-emergence percent weed growth and germination inhibition DIGSA); 12% in assay [8] (Alopecurus myosuroides, pre-emergence, Dose 200 g a.i./ha, read-out: Pre-emergence percent weed growth and germination inhibition ALOMY). Besides, in assay [9] (Echinochloa crus-galli, pre-emergence, Dose 200 g a.i./ha, read-out: Pre-emergence percent weed growth and germination inhibition ECHCG), the inhibition at 200 g/ha came out at 12%.

For `CCc1cccc(C)c1N(C(=O)CCl)[C@@H](C)COC` [S-metolachlor], the “Pre-emergence percent weed growth and germination inhibition AMAPA” value in assay [3] (Dose 1000 g a.i./ha) is given as 65%. Also, in assay [4] (Dose 1000 g a.i./ha), the “Pre-emergence percent weed growth and germination inhibition AMATU” value came to 80%. Further, the “Pre-emergence percent weed growth and germination inhibition KCHSC” value in [5] (Dose 1000 g a.i./ha) is listed as 57%. In addition, in assay [6] (Dose 1000 g a.i./ha), the “Pre-emergence percent weed growth and germination inhibition CHEAL” value was 50%. For the same molecule, the “Pre-emergence percent weed growth and germination inhibition DIGSA” value in assay [7] (Dose 1000 g a.i./ha) amounted to 80%. The “Pre-emergence percent weed growth and germination inhibition ALOMY” value in assay [8] (Dose 1000 g a.i./ha) stood at 30%. For the same molecule, the “Pre-emergence percent weed growth and germination inhibition ECHCG” value in assay [9] (Dose 1000 g a.i./ha) worked out at 93%.

As to `CS(=O)(=O)c1ccc(C(=O)C2C(=O)CCCC2=O)c([N+](=O)[O-])c1` [mesotrione], the inhibition at 105 g/ha in assay [1] (Dose 105 g a.i./ha, 14 DAT) was 61%; in assay [2] (Dose 105 g a.i./ha, 14 DAT), 95%. The inhibition at 210 g/ha in [3] (Amaranthus palmeri, pre-emergence, Dose 210 g a.i./ha, read-out: Pre-emergence percent weed growth and germination inhibition AMAPA) stood at 53%; in assay [4] (Amaranthus tuberculatus, pre-emergence, Dose 210 g a.i./ha, read-out: Pre-emergence percent weed growth and germination inhibition AMATU), 75%; in [5] (Bassia scoparia, pre-emergence, Dose 210 g a.i./ha, read-out: Pre-emergence percent weed growth and germination inhibition KCHSC), 77%; in [6] (Chenopodium album, pre-emergence, Dose 210 g a.i./ha, read-out: Pre-emergence percent weed growth and germination inhibition CHEAL), 100%; in assay [7] (Digitaria sanguinalis, pre-emergence, Dose 210 g a.i./ha, read-out: Pre-emergence percent weed growth and germination inhibition DIGSA), 82%; in assay [8] (Alopecurus myosuroides, pre-emergence, Dose 210 g a.i./ha, read-out: Pre-emergence percent weed growth and germination inhibition ALOMY), 20%. Also, the inhibition at 210 g/ha in [9] (Echinochloa crus-galli, pre-emergence, Dose 210 g a.i./ha, read-out: Pre-emergence percent weed growth and germination inhibition ECHCG) amounted to 33%.

On to `O=C(O)COc1ccc(Cl)cc1Cl` [2,4-D acid, 2,4-dichlorophenoxyacetic acid], for which the inhibition at 280 g/ha in [1] was found to be 89%; in assay [2] it was 10%.

Regarding `O=C(O)CNCP(=O)(O)O` [glyphosate], the “% dead AMATU” value in assay [10] (Loc 11) was determined as 88%; in assay [10] (Loc 12) it was 50%; in [10] (Loc 14), 32%; in assay [10] (Loc 15), 12%. Besides, the “% dead CHEAL” value in [11] (Loc 11) and in assay [11] (Loc 14) was 88% each time. Besides, in [12], the “% dead AMAPA” value was 13%. In addition, the “% dead ABUTH” value in assay [13] was found to be 85%. The “% dead SETFA” value in [14] is reported as 100%. Also, the inhibition at 1000 g/ha in assay [1] came to 60%. Besides, the inhibition at 860 g/ha in assay [2] was found to be 84%.

(Values after patent US20260256143A1, “HERBICIDAL COMPOSITION AND METHOD FOR CONTROLLING WEEDS” (Enko Chem, Inc., priority 2023, published 2026).)
